Measurements: US20260165990A1, “Treatment of Tartaric Acid Toxicity in Dogs with Probenecid” (priority 2022, published 2026)
Read-outs that look alike come from different tables or passages of the source.

Assays:
HK-2 cells = test: LDH release cytotoxicity of tartaric acid in HK-2 cells; type: cell-based, human
Text: (§1) Absorbance was read at 450 nm.

MDCK cells [1] = test: Probenecid prevention of tartaric acid induced LDH release in MDCK cells
Experimental: When conducting experiments with probenecid (Sigma Aldrich, St. Louis, MO), a stock solution of 2 mmol/L in complete media was made at pH 7.4, then mixed with either complete media or 100 mmol/L tartaric acid to yield both solutions of 1 mmol/L and 500 μmol/L and solutions of 1 mmol/L probenecid+50 mmol/L potassium bitartrate, as well as 500 μmol/L+50 mmol/L potassium bitartrate. MDCK cells were treated and allowed to incubate for 72 hours.
as §1
As TTA is a common, dietary dicarboxylic acid, it is believed to be renally excreted via organic anion-handling transporters. Therefore, to assess the role of OAT-mediated TTA transport, MDCK cells were exposed to 50 mM tartaric acid alone or in combination with 1 mM or 0.5 mM probenecid; a known OAT-1 inhibitor.

MDCK cells [2] = test: ATP depletion in MDCK cells (CellTiter Glo assay); type: cell-based, canine
Experimental: TTA concentration groups were compared to media alone (Neg.) using one-way ANOVA followed by a Dunnett's post-hoc test. (n=3/group). * p<0.05; ** p<0.005; *** p<0.001; **** p<0.0001.
500 μM probenecid (PBD) protected MDCK cells from 25 mM and 50 mM TTA-induced ATP depletion at 12 & 72 h, assessed using a CellTiter Glo® assay. Groups were compared using one-way ANOVA followed by a Tukey's post-hoc test. (n=3); ***p<0.001, **** p<0.0001 compared to media; $p<0.05 compared to 25 or 50 mM TTA alone.
ATP depletion was determined in MDCK cells as another measure of cytotoxicity of TTA. The results shown in FIG. 3 indicate that ATP depletion was both time-and dose-dependent. In FIG. 4, it can be observed that dose-response curves were obtained for TTA-induced ATP depletion, and the cells became more sensitive at each increasing dose, and with increasing time of exposure to TTA. This established the MDCK cell culture model as a valid predictor of TTA-induced renal pathology in canine kidney in vitro.

[3] = test system: MDCK cells transfected with human OAT-4; test: LDH release in hOAT-4 transfected MDCK cells; type: cell-based, canine; details: 50 mM TTA, 72 h
Experimental: In order to assess the role that OAT transporters may play in tartaric acid induced nephrotoxicity, MDCK cells were transfected with human OAT-4 and treated with 50 mmol/L of potassium bitartrate. Human (h)OAT-4 cDNA (GenScript, Piscataway, NJ) was purchased and transformed using E. coli (New England Biolabs, Ipswich, MA) to produce higher amounts of cDNA to be used in transfection. E. coli was transformed per New England Biolab's protocol. Briefly, E. coli was thawed, plasmid cDNA was added, and then mixed with manufacturer's SOC solution. The mixture was allowed to incubate at 37° C. for 60 minutes, and was then spread on LB agar ampicillin-100 plates (Sigma Aldrich, St. Louis, MO) and allowed to incubate for 24 hours at 37° C. Colonies were then collected, placed into a solution of LB […] ampicillin-100 broth, and incubated overnight.
Human OAT-4 plasmid preparation with the amplified E. coli was completed using the PureYield Plasmid Miniprep System (Promega, Madison, WI) following manufacturers protocol. Briefly, 4 mL of culture was collected and centrifuged. The supernatant was removed, and the cell pellet was resuspended in 600 μL 1xPBS. […] The concentration of the elucidated cDNA was then measured using a NanoDrop spectrophotometer (yielding cDNA ranging from 264.8 to 762.8 ng/uL). […]
as §1

MDCK cells [4] = test system: MDCK cells
Experimental: MDCK cells were maintained in EMEM media supplemented with 10% Fetal Bovine Serum and 1% streptomycin. […] Both cell lines were incubated at 37° C. and 5% CO2 until confluency.
For experiments, both cell lines were incubated in triplicate with an endpoint of 72 hours. Treatment concentrations were made using a stock solution of 100 mmol/L potassium bitartrate in complete media. Final treatment concentrations of 5, 10, 25, 50, 75, and 100 mmol/L were reached via serial dilution. To mimic physiological pH of 7.4, 10N NaOH and 10M HCl were used. A positive control of 0.005% hydrogen peroxide was also used.
Release of lactate dehydrogenase (LDH) from the cytosol in response to plasma membrane damage is a common measure of necrotic cell death and was measured utilizing the LDH-Cytotoxicity assay kit according to the manufacturer's protocol (BioVision, Milpitas, CA). Briefly, media from treated MDCK or HK-2 cells was removed and samples placed into a 96 well plate in duplicate. A mixture of WST kit reagent and buffer in a 25:1 ratio was then added to each well. The plate was covered and allowed to incubate at room temperature for 30 minutes. Absorbance was read at 450 nm. To normalize for potential cell confluency differences, cells were solubilized with 0.05% Triton-X, and cellular protein was analyzed using the bicinchoninic acid (BCA) method.

canines = details: grape ingestion, tartaric acid equivalent; cited from earlier work
dogs = details: cited from earlier work
renal tubular excretion = details: canines, effect plateaus at this dose; cited from earlier work

With `O=C(O)C(O)C(O)C(=O)O` (stereo not drawn) [TTA, tartaric acid] the LDH release (HK-2 cells; HK-2 cells, 72 h, pH 7.4, 5-100 mmol/L, vs negative control) was “no statistically significant increase in LDH release”, the “TTA-induced LDH release, HK-2 vs. MDCK cells” value (HK-2 cells; same exposure concentrations across species, two-way ANOVA) was “no significant difference” and the LDH release (MDCK cells [1]; 50 mM TTA alone, 72 h (probenecid experiment)) was 4.302. The ATP depletion (MDCK cells [2]; function of time and dose of TTA exposure) was “induced significant ATP depletion”, the LDH release [3] was 1.213 and the LDH release (MDCK cells [4]; MDCK cells, 10 mM, 72 h, pH 7.4) was 1.769. The LDH release (MDCK cells [4]; MDCK cells, 25 mM, 72 h, pH 7.4) was 1.472, the LDH release (MDCK cells [4]; MDCK cells, 50 mM, 72 h, pH 7.4) was 1.646 and the LDH release (MDCK cells [4]; MDCK cells, 75 mM, 72 h, pH 7.4) was 2.540. The LDH release (MDCK cells [4]; MDCK cells, 100 mM, 72 h, pH 7.4) was 1.778, the “lowest concentration with significant increase in TTA-induced cytotoxicity” value (MDCK cells [4]; MDCK cells, 72 h of exposure, vs controls) was 10 mmol/L and the LDH release (MDCK cells [4]; non-transfected MDCK cells, 50 mM TTA, 72 h (transfection experiment)) was 2.807. For the same compound, the “ingested dose (as tartaric acid) resulting in significant nephrotoxicity” value (canines) was 196 to 1484 mg/kg.
For `CCCN(CCC)S(=O)(=O)c1ccc(C(=O)O)cc1` [probenecid, 4-(dipropylsulfamoyl)benzoic acid], the “prevention of TTA-induced cytotoxicity” value (MDCK cells [1]; 500 μM and 1 mM probenecid) was “completely prevented”, the LDH release (MDCK cells [1]; 0.5 mM probenecid + 50 mM TTA, 72 h) was 1.658 and the LDH release (MDCK cells [1]; 1 mM probenecid + 50 mM TTA, 72 h) was 1.518. For the same compound, the “cell death by probenecid alone” value (MDCK cells [1]; probenecid alone at 0.5 mM or 1 mM, 72 h) was “did not induce significant cell death”, the “protection from TTA-induced ATP depletion” value (MDCK cells [2]; 500 μM probenecid, 25 mM and 50 mM TTA, 12 & 72 h) was “protected” and the LD50 (dogs; IV) was 270 mg/kg. The therapeutic index (dogs) was “high” and the “oral dose enough to completely suppress renal tubular excretion” value (renal tubular excretion) was 6 mg/kg.
